From PubChem BioAssay AID588655 (The Scripps Research Institute Molecular Screening Center, 2011)

How the values were obtained:
[1] = tested on: HT29 cells, phospho-ERK1/2 western blot, 24 h; experiment: phospho-ERK1/2 level change, either direction, late-stage follow-up, counter-screen for KLF5 inhibitor project, HT29 cells, chemiluminescent western blot, powder samples (AID 588655); details: measured here: phospho-ERK fold change vs DMSO; at 10 µM
[2] = molecular target: Mitogen-activated protein kinase 1 (Homo sapiens) (UniProt P28482); experiment: as above; details: HT29 cells, phospho-ERK1/2 western blot, 24 h; at 10 µM; stronger effect = higher value
Chain of Mitogen-activated protein kinase 1 (Homo sapiens) (P28482 whole entry, looked up): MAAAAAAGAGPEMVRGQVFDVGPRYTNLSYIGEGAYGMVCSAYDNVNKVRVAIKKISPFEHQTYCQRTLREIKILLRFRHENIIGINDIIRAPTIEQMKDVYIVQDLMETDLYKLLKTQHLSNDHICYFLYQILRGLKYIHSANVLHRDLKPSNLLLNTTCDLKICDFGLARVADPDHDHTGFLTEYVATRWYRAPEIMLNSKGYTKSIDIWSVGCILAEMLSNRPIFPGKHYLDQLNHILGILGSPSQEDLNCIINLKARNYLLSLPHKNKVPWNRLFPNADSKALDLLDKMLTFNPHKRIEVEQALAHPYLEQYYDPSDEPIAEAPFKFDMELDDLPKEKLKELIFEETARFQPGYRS

phospho-ERK1/2 band inhibition vs DMSO (stronger effect = higher value) [2] | Compound | fold change [1]
38.6% | CN(C(=O)COC(=O)/C=C/c1cccc([N+](=O)[O-])c1)C1CCS(=O)(=O)C1 (stereo unspecified) | -1.63
34.3% | CN(C(=O)CNC(=O)/C=C/c1cccc(Cl)c1)C1CCS(=O)(=O)C1 (stereo unspecified) | -1.52
50.5% | CN(C(=O)CNC(=O)/C=C/c1cccc(Cl)c1)C1CCS(=O)(=O)CC1 | -2.02
